The values below are quoted from earlier work in patent US6986763B2, “Methods and compositions usable in cataract surgery” (PHACOTREAT AB, priority 2001, dated 2006).

One series has as its system lens epithelial cells. Particulars: in vitro.
Turning to `COc1cccc2c1C(=O)c1c(O)c3c(c(O)c1C2=O)C[C@@](O)(C(=O)CO)C[C@@H]3O[C@H]1C[C@H](N)[C@H](O)[C@H](C)O1` [doxorubicin], the “inhibiting lens epithelial cells proliferation” value was “effective”.

For `COc1cc2c(c(OC)c1OC)-c1ccc(OC)c(=O)cc1[C@@H](NC(C)=O)CC2` [colchicines], the “inhibiting lens epithelial cells proliferation” value is recorded as “effective”.

Regarding `COc1cccc2c1C(=O)c1c(O)c3c(c(O)c1C2=O)C[C@@](O)(C(C)=O)C[C@@H]3O[C@H]1C[C@H](N)[C@H](O)[C@H](C)O1` [daunomycin/daunorubicin], the “inhibiting lens epithelial cells proliferation” value was “effective”.

In the case of `CN(Cc1cnc2nc(N)nc(N)c2n1)c1ccc(C(=O)N[C@@H](CCC(=O)O)C(=O)O)cc1` [methotrexate], the “inhibiting lens epithelial cells proliferation” value was “effective”.

In the case of `CC(=O)O[C@H]1C(=O)[C@@]2(C)[C@H]([C@H](OC(=O)c3ccccc3)[C@]3(O)C[C@H](OC(=O)[C@H](O)[C@@H](NC(=O)c4ccccc4)c4ccccc4)C(C)=C1C3(C)C)[C@]1(OC(C)=O)CO[C@@H]1C[C@@H]2O` [taxol], the “inhibiting lens epithelial cells proliferation” value is “effective”.

Consider `O=c1[nH]cc(F)c(=O)[nH]1` [5-fluorouracil], for which the “inhibiting lens epithelial cells proliferation” value is listed as “effective”.

On to `CO[C@@]12[C@H](COC(N)=O)C3=C(C(=O)C(C)=C(N)C3=O)N1C[C@@H]1N[C@@H]12` [mitomycin], for which the “inhibiting lens epithelial cells proliferation” value is recorded as “effective”.

For another series, the system named is lens epithelial cells. Particulars: cadaver eyes; 2% solution in irrigation solution.
In the case of trypsin, the “damage to the zonules” value was “the zonules were damaged”.

Still in this series, the particulars now being: cadaver eyes; agent in irrigation solution.
As for trypsin, the “separation of lens epithelial cells” value is reported as “lens epithelial cells were stripped in places”.

`O=C(O)CN(CCN(CC(=O)O)CC(=O)O)CC(=O)O` [EDTA, Ethylenediamine tetraacetic acid]: the “separation of lens epithelial cells” value is “the anterior lens epithelial cells could be separated”.
